# Measurements as given in patent US6500825B2, “Substituted 2-aminoacetamides and the use thereof” (Euro-Celtique S.A., priority 1997, dated 2002).
# Tests used:
# [1] = test system: maximal electroshock-induced seizures (MES); experiment: Maximal electroshock-induced seizures (MES) iv in mouse; format: in vivo; details: administered iv 10 min before the test, tonic hindlimb extensor response
# Protocol: The ability of selected 2-methylpropanamide derivatives to block maximal electroshock-induced seizures (MES) was determined by the following procedure. Seizures were induced by application of current (50 mA, 60 pulses/sec, 0.8 msec pulse width, 1 sec duration, D.C.) using a Ugo Basile ECT device (model 7801). Mice were restrained by gripping the loose skin on their dorsal surface and saline-coated corneal electrodes were held lightly against the two cornea. […] A tonic seizure was defined as a hindlimb extension in excess of 90 degrees from plane of the body. The 2-methylpropanamides tested were administered iv to mice 10 min before the test procedure.
# [2] = test system: voltage-sensitive Na+ channels; experiment: Electrophysiological assay: patch-clamp recordings of voltage-sensitive Na+ currents in acutely dissociated rat hippocampal neurons; format: cell-based
# Protocol: Electrophysiological Assay
# Cell preparation: Acute cultures of rat hippocamnpal neurons were prepared daily using a modification of procedures described previously (Kuo and Bean, Mol. Pharm. 46:716-725 (1994)). Briefly, hippocampi were isolated from 3-11 day old rat pup brains (Sprague-Dawley; Charles River) and were sectioned, by hand, into 0.5-1 mm thick transyerse slices (Whittemore and Koerner, Eur. J. Pharm. 192:435-438 (1991)). Slices were incubated for at least 30 min at room temperature (20-24° C.) in an oxygenated medium (124 mM NaCl, 3.3 mM KCl, 2.4 mM MgSO4, 2.5 mM CaCl2, 1.2 mM KH2PO4, 26 mM NaHCO3, pH=7.4) continuously bubbled with 5% CO2/95% O2. Prior to recording, 4-5 slices were transferred to an oxygenated dissociation medium (82 mM NaSO4, 30 mM K2SO4, 3 mM MgCl2, 2 mM HEPES, 26 mM NaHCO3, 0.001% phenol red, pH=7.4) containing 3 mg/mL protease XXIII (Sigma, St. Louis, Mo.) and incubated for 10-15 min at 37° C., while continuously bubbling with 5% CO2/95% O2. Enzymatic digestion was terminated by transferring the slices to dissociation medium without bicarbonate, supplemented with 1 mg/mL bovine serum albumin and 1 mg/mL trypsin inhibitor (Sigma, St. Louis, Mo.). Slices were then transferred to a 35 mm culture dish containing dissociation medium without bicarbonate, and triturized with a fire-polished glass Pasteur pipette to release single cells. […]
# Patch-clamp recordings of voltage-sensitive Na^+ currents: Whole-cell voltage-clamp recordings were made using conventional patch-clamp technique (Hamill et al., Pfluegers Arch. 391:85-100 (1981)) with an Axopatch 200A amplifier (Axon Instruments, Foster City, Calif.). […] Currents were recorded at room temperature (22-25° C.), filtered at 5 kHz with 4-pole Bessel filter, digitized at 20-50-μs intervals, and stored using Digidata 1200 analog/digital interface with Pclamp6/Clampex software (Axon Instruments). […] The inhibitory potency of drugs was assessed by measuring reductions in the peak amplitude of […] currents induced by increasing concentrations of compounds tested. […]
SMILES,iv MES activity (number protected/number screened) [1],inhibition of voltage-gated Na+ currents ([2]; acutely dissociated rat hippocampal neurons),"effect on Na+ currents activated from a holding membrane voltage of −100 mV ([2]; concentrations between 0.1-10 μM, holding voltage −100 mV)","Kd ([2]; inactivated Na+ channels, acutely dissociated rat hippocampal neurons, read-out: apparent antagonist dissociation constant (Kd) for inactivated Na+ channels) [µM]",melting point [°C]
"CC(C)(NCc1ccc(Oc2ccc(F)cc2F)cc1)C(N)=O [2,4-difluorophenoxy, 2-(4-(2,4-Difluorophenoxy)benzylamino)-2-methylpropanamide]",8/8,,,,
CC(C)(NCc1ccc(OCc2ccccc2F)cc1)C(N)=O [2-(4-(2-Fluorobenzyloxy)benzylamino)-2-methyl-propanamide],,dose-dependent inhibition,very little effect,~1.2,
"CC(C)(NCc1ccc(Oc2ccc3c(c2)CCC3)cc1)C(N)=O [Example 5-indanoxy, 2-(4-(5-Indanoxy)benzylamino)-2-methylpropanamide]",1/8,,,,81 to 83
"CC(C)(NCc1ccc(Oc2ccc3c(c2)OCO3)cc1)C(N)=O [3,4-methylenedioxyphenoxy, 2-(4-(3,4-Methylenedioxyphenoxy)benzylamino)-2-methyl-propanamide]",8/8,,,,
"CC(C)(NCc1ccc(Oc2ccc(F)cc2)cc1)C(N)=O [4-fluorophenoxy, 2-(4-(4-Fluorophenoxy)benzylamino)-2-methylpropanamide]",8/8,,,,103 to 106
